Relative activity data for ten compounds are collected here from ChEMBL document CHEMBL1122122, “Drug latentiation by gamma-glutamyl transpeptidase” (J Med Chem, 1982).

The structures appear in SMILES notation. Residues, ends and D or L forms follow the SMILES beside them.

This test in a line: Compound evaluated for drug latentiation activity by determining relative rate of cleavage by gamma-glutamyl transpeptidase. The test is classed as functional.
In the case of `CSC[C@H](NC(=O)CC[C@H](N)C(=O)O)C(=O)NCC(=O)O`, the Relative activity worked out at 100.

In turn, `NC(CCC(=O)Nc1ccc(O)cc1)C(=O)O` (stereo not given) had a Relative activity of 98.

With `CCC(NC(=O)CCC(N)C(=O)O)C(=O)O` (stereo not given), the Relative activity is 95.

Compound `NC(CCC(=O)N1CCCC1C(=O)O)C(=O)O` (stereo not given) yielded a Relative activity of 4.

`NC(CCC(=O)NC1(C(=O)O)CCCC1)C(=O)O` (stereo not given) gave a Relative activity of 19.

Consider `NC(=O)CC[C@H](N)C(=O)NCC(=O)O` (H-Gln-Gly-OH), for which the Relative activity stood at 70.

As for `NC(CCC(=O)NCCCC(=O)O)C(=O)O` (stereo not given), the Relative activity is 9.

Regarding `NC(CCC(=O)Nc1cccc(O)c1)C(=O)O` (stereo not given), the Relative activity came to 96.

Compound `NC(CCC(=O)N1CSCC1C(=O)O)C(=O)O` (stereo not given) returned a Relative activity of 5.

In turn, `NC(CCC(=O)Nc1ccccc1O)C(=O)O` (stereo not given) showed a Relative activity of 95.
